According to patent US9051270B2, “Pyridone amides as modulators of sodium channels” (Vertex Pharmaceuticals Incorporated, priority 2013, dated 2015):

Tests used:
[1] = Microsomal stability assay, rat liver microsomes (RLM); assay type: in vitro ADME; conditions: rat liver microsomes 0.5 mg/mL, 1 uM substrate, 2 mM NADPH, 37° C., referenced against time zero control
Procedure: (§1) Microsomal Stability Assay.
(§2) Compounds were incubated at 37° C. and shaken for 30 minutes in a phosphate buffered solution with either rat or human liver microsomes and the cofactor NADPH. A time zero control was similarly prepared, however with NADPH excluded. The final incubation concentrations were 1 uM substrate (0.2% DMSO), 0.5 mg/mL liver microsome, 2 mM NADPH, and 0.1 M phosphate. Reactions were quenched and proteins precipitated with the addition of 2 volume equivalents of ice cold acetonitrile containing an internal standard. Following a centrifugation step, aliquots from the quenched incubations were further diluted with 4 volume equivalents of a 50% aqueous methanol solution and then subjected to LC/MS/MS analysis for quantitation of parent compound. Microsome stability values were calculated as the percent of substrate remaining after 30 minutes referenced against the time zero control.
(§3) Microsomal stability in rat and human liver microsomes were determined for selected compounds of the present invention using the above assay. Table 4 provides the human liver microsomes (“HLM”) and rat liver microsomes (“RLM”) stability data as the percent of compound remaining after 30 minutes referenced against the time zero control.

human Nav1.8 = human Nav1.8 (Homo sapiens (Human), UniProt Q9Y5Y9); assay: E-VIPR optical membrane potential assay with electrical stimulation; assay type: cell-based; conditions: HEK cells expressing human Nav1.8
[2] = Microsomal stability assay, human liver microsomes (HLM); assay type: in vitro ADME; conditions: human liver microsomes 0.5 mg/mL, 1 uM substrate, 2 mM NADPH, 37° C., referenced against time zero control
Procedure: as §1, §2, §3

human Nav1.8, sequence (Q9Y5Y9 whole entry): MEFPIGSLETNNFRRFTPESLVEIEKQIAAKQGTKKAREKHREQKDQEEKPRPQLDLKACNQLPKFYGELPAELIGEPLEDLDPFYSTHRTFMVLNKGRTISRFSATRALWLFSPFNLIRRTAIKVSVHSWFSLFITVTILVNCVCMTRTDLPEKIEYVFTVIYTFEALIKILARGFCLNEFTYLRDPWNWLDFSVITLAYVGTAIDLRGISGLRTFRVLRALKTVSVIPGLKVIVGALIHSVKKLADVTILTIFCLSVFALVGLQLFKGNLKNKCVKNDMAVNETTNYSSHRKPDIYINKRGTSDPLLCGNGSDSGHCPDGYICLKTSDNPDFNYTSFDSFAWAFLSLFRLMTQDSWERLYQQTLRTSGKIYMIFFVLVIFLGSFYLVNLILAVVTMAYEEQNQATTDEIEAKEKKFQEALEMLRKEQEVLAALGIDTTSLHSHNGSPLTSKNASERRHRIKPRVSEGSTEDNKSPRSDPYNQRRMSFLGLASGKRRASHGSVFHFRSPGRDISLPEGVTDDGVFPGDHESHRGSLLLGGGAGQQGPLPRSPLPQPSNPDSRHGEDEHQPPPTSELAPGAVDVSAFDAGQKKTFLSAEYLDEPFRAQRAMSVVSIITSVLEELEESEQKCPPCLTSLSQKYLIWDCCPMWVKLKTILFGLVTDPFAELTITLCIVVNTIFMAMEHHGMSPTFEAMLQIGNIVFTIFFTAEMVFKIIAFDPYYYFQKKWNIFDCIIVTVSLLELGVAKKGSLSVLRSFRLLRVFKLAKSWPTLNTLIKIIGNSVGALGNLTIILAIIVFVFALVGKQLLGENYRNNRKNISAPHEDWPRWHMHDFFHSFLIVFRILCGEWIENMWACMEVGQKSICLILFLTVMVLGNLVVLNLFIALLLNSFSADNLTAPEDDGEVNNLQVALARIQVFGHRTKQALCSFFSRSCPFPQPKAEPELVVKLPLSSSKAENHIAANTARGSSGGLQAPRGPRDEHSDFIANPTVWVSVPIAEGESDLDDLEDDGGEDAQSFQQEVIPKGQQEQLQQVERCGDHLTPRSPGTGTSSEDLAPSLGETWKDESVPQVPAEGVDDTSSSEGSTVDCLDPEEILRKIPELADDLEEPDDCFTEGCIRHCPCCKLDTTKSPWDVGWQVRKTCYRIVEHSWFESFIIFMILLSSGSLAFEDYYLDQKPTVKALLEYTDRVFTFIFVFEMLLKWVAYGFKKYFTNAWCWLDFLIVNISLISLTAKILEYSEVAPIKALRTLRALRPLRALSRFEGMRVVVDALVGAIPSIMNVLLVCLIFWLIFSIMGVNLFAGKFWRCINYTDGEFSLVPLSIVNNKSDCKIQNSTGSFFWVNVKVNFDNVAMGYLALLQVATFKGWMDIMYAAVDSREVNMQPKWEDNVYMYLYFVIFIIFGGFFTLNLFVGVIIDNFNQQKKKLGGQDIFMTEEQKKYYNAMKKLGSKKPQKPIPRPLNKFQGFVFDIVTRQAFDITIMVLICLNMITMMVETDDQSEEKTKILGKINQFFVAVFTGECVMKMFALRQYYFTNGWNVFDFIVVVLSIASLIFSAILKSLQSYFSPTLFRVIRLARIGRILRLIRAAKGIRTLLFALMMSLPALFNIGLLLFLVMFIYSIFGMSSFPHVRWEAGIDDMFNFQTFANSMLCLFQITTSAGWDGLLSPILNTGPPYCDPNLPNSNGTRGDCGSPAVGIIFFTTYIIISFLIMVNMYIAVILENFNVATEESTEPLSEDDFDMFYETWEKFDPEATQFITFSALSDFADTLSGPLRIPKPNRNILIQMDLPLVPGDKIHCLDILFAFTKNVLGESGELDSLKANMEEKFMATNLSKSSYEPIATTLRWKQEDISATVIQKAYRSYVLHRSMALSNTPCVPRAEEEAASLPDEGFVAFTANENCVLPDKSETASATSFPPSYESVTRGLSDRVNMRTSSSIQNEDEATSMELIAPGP

Row | RLM (% remaining @ 30 minutes) [1] | IC50 (human Nav1.8) | HLM (% remaining @ 30 minutes) [2] | Structure (SMILES)
1 | 78% | 11 nM | 76% | COc1cc(F)ccc1Oc1ccc(C(F)(F)F)cc1C(=O)Nc1cc[nH]c(=O)c1 [Compound 30, 2-(4-fluoro-2-methoxyphenoxy)-N-(2-oxo-1,2-dihydropyridin-4-yl)-5-(trifluoromethyl)benzamide]
2 | 100% | 11 nM | 103% | O=C(Nc1cc[nH]c(=O)c1)c1ccc(C(F)(F)F)cc1Oc1ccc(OC(F)(F)F)cc1 [Compound 79, N-(2-oxo-1,2-dihydropyridin-4-yl)-2-(4-(trifluoromethoxy)phenoxy)-4-(trifluoromethyl)benzamide]
3 |  | 12000 nM |  | O=C(Nc1cc[nH]c(=O)c1)c1cc(OC(F)(F)F)ccc1Oc1c(F)cccc1F [Compound 34, 2-(2,6-difluorophenoxy)-N-(2-oxo-1,2-dihydropyridin-4-yl)-5-(trifluoromethoxy)benzamide]
4 |  | 15000 nM |  | CC1(C)CC1COc1ccc(OC(F)(F)F)cc1C(=O)Nc1cc[nH]c(=O)c1 (centres unmarked) [Compound 140, 2-((2,2-dimethylcyclopropyl)methoxy)-N-(2-oxo-1,2-dihydropyridin-4-yl)-5-(trifluoromethoxy)benzamide]
5 |  | 18 nM |  | COc1ccc(Oc2ccc(C(F)(F)F)cc2C(=O)Nc2cc[nH]c(=O)c2)c(C)c1 [Compound 63, 2-(4-methoxy-2-methylphenoxy)-N-(2-oxo-1,2-dihydropyridin-4-yl)-5-(trifluoromethyl)benzamide]
6 |  | 1400 nM |  | Cc1cc(C)c(C)c(Oc2ccc(F)cc2C(=O)Nc2cc[nH]c(=O)c2)c1 [Compound 94, 5-fluoro-N-(2-oxo-1,2-dihydropyridin-4-yl)-2-(2,3,5-trimethylphenoxy)benzamide]
7 |  | 93 nM |  | O=C(Nc1cc[nH]c(=O)c1)c1ccc(C(F)(F)F)cc1Oc1ccccc1 [Compound 9, N-(2-oxo-1,2-dihydropyridin-4-yl)-2-phenoxy-4-(trifluoromethyl)benzamide]
8 |  | 70 nM |  | COc1ccc(Oc2ccc(C(F)(F)F)cc2C(=O)Nc2cc[nH]c(=O)c2)c(F)c1 [Compound 55, 2-(2-fluoro-4-methoxyphenoxy)-N-(2-oxo-1,2-dihydropyridin-4-yl)-5-(trifluoromethyl)benzamide]
9 |  | 3550 nM |  | Cc1c[nH]c(=O)cc1NC(=O)c1ccc(C(F)(F)F)cc1Oc1ccc(F)cc1C [Compound 86, 2-(4-fluoro-2-methylphenoxy)-N-(5-methyl-2-oxo-1,2-dihydropyridin-4-yl)-4-(trifluoromethyl)benzamide]
10 |  | 350 nM |  | O=C(Nc1ccc(=O)[nH]c1)c1cc(C(F)(F)F)ccc1Oc1ccc(F)cc1 [Compound 4, 2-(4-fluorophenoxy)-N-(6-oxo-1,6-dihydropyridin-3-yl)-5-(trifluoromethyl)benzamide]
11 |  | 13500 nM |  | O=C(Nc1ccc(=O)[nH]c1)c1ccccc1Oc1ccc(F)cc1 [Compound 3, 2-(4-fluorophenoxy)-N-(6-oxo-1,6-dihydropyridin-3-yl)benzamide]
12 |  | 6900 nM |  | COc1cc(F)cc(Oc2ccc(C(F)(F)F)cc2C(=O)Nc2cc[nH]c(=O)c2)c1 [Compound 57, 2-(3-fluoro-5-methoxyphenoxy)-N-(2-oxo-1,2-dihydropyridin-4-yl)-5-(trifluoromethyl)benzamide]
13 |  | 3450 nM |  | O=C(Nc1cc[nH]c(=O)c1)c1cc(F)ccc1Oc1ccccc1 [Compound 95, 5-fluoro-N-(2-oxo-1,2-dihydropyridin-4-yl)-2-phenoxybenzamide]
14 |  | 54 nM |  | O=C(Nc1cc[nH]c(=O)c1)c1cc(C(F)(F)F)ccc1Oc1ccc(Cl)cc1 [Compound 58, 2-(4-chlorophenoxy)-N-(2-oxo-1,2-dihydropyridin-4-yl)-5-(trifluoromethyl)benzamide]
15 |  | 31 nM |  | O=C(Nc1cc[nH]c(=O)c1)c1ccc(C(F)(F)F)cc1Oc1ccc(Cl)cc1 [Compound 78, 2-(4-chlorophenoxy)-N-(2-oxo-1,2-dihydropyridin-4-yl)-4-(trifluoromethyl)benzamide]
16 |  | 135 nM |  | Cc1ccc(Oc2ccc(C(F)(F)F)cc2C(=O)Nc2cc[nH]c(=O)c2)c(F)c1F [Compound 92, 2-(2,3-difluoro-4-methylphenoxy)-N-(2-oxo-1,2-dihydropyridin-4-yl)-5-(trifluoromethyl)benzamide]
17 |  | 690 nM |  | Cc1cccc(F)c1Oc1ccc(OC(F)(F)F)cc1C(=O)Nc1cc[nH]c(=O)c1 [Compound 39, 2-(2-fluoro-6-methylphenoxy)-N-(2-oxo-1,2-dihydropyridin-4-yl)-5-(trifluoromethoxy)benzamide]

Row | RLM (% remaining @ 30 minutes) [1] | IC50 (human Nav1.8) | HLM (% remaining @ 30 minutes) [2] | Structure (SMILES)
18 |  | 3550 nM |  | Cc1cc(C)c(Oc2ccc(F)cc2C(=O)Nc2cc[nH]c(=O)c2)cc1C [Compound 105, 5-fluoro-N-(2-oxo-1,2-dihydropyridin-4-yl)-2-(2,4,5-trimethylphenoxy)benzamide]
19 |  | 4600 nM |  | Cc1ccc(Oc2cc(C(F)(F)F)ccc2C(=O)Nc2cc[nH]c(=O)c2)cn1 [Compound 146, 2-((6-methylpyridin-3-yl)oxy)-N-(2-oxo-1,2-dihydropyridin-4-yl)-4-(trifluoromethyl)benzamide]
20 |  | 843 nM |  | N#Cc1ccc(C(=O)Nc2cc[nH]c(=O)c2)c(Oc2ccc(F)cc2)c1 [Compound 21, 4-cyano-2-(4-fluorophenoxy)-N-(2-oxo-1,2-dihydropyridin-4-yl)benzamide]
21 |  | 390 nM |  | O=C(Nc1cc[nH]c(=O)c1)c1cc(F)ccc1Oc1ccc(OCC(F)(F)F)cc1 [Compound 107, 5-fluoro-N-(2-oxo-1,2-dihydropyridin-4-yl)-2-(4-(2,2,2-trifluoroethoxy)phenoxy)benzamide]
22 |  | 1500 nM |  | Cc1cc(F)ccc1Oc1cc(C#N)ccc1C(=O)Nc1cc[nH]c(=O)c1 [Compound 23, 4-cyano-2-(4-fluoro-2-methylphenoxy)-N-(2-oxo-1,2-dihydropyridin-4-yl)benzamide]
23 |  | 113 nM |  | Cc1cc(NC(=O)c2cc(C(F)(F)F)ccc2Oc2ccc(F)cc2C)cc(=O)[nH]1 [Compound 61, 2-(4-fluoro-2-methylphenoxy)-N-(6-methyl-2-oxo-1,2-dihydropyridin-4-yl)-5-(trifluoromethyl)benzamide]
24 |  | 52 nM |  | O=C(Nc1cc[nH]c(=O)c1)c1c(Oc2ccccc2)cc(C(F)(F)F)cc1C(F)(F)F [Compound 156, N-(2-oxo-1,2-dihydropyridin-4-yl)-2-phenoxy-4,6-bis(trifluoromethyl)benzamide]
25 |  | 420 nM |  | Cc1cc(C)c(C)c(Oc2ccc(C(F)(F)F)cc2C(=O)Nc2cc[nH]c(=O)c2)c1 [Compound 91, N-(2-oxo-1,2-dihydropyridin-4-yl)-5-(trifluoromethyl)-2-(2,3,5-trimethylphenoxy)benzamide]
26 |  | 205 nM |  | O=C(Nc1cc[nH]c(=O)c1)c1cc(C(F)(F)F)ccc1Oc1ccccc1 [Compound 32, N-(2-oxo-1,2-dihydropyridin-4-yl)-2-phenoxy-5-(trifluoromethyl)benzamide]
27 |  | 108 nM |  | CC(C)Oc1ccccc1Oc1ccc(C(F)(F)F)cc1C(=O)Nc1cc[nH]c(=O)c1 [Compound 64, 2-(2-isopropoxyphenoxy)-N-(2-oxo-1,2-dihydropyridin-4-yl)-5-(trifluoromethyl)benzamide]
28 |  | 3350 nM |  | O=C(Nc1cc[nH]c(=O)c1)c1ccc(Cl)cc1Oc1ccc(C(F)(F)F)nc1 [Compound 143, 4-chloro-N-(2-oxo-1,2-dihydropyridin-4-yl)-2-((6-(trifluoromethyl)pyridin-3-yl)oxy)benzamide]
29 |  | 10 nM |  | Cc1cc(F)ccc1Oc1cc(C(F)(F)F)cc(C(F)(F)F)c1C(=O)Nc1cc[nH]c(=O)c1 [Compound 153, 2-(4-fluoro-2-methylphenoxy)-N-(2-oxo-1,2-dihydropyridin-4-yl)-4,6-bis(trifluoromethyl)benzamide]
30 |  | 11 nM |  | O=C(Nc1cc[nH]c(=O)c1)c1c(Oc2ccc(F)cc2)cc(C(F)(F)F)cc1C(F)(F)F [Compound 155, 2-(4-fluorophenoxy)-N-(2-oxo-1,2-dihydropyridin-4-yl)-4,6-bis(trifluoromethyl)benzamide]
31 | 82% |  | 93% | Cc1cc(F)ccc1Oc1cc(C(F)(F)F)ccc1C(=O)Nc1cc[nH]c(=O)c1 [Compound 10, 2-(4-fluoro-2-methylphenoxy)-N-(2-oxo-1,2-dihydropyridin-4-yl)-4-(trifluoromethyl)benzamide]
32 |  | 400 nM |  | O=C(Nc1cc[nH]c(=O)c1)c1cc(F)ccc1Oc1ccc(C2CC2)cc1 [Compound 96, 2-(4-cyclopropylphenoxy)-5-fluoro-N-(2-oxo-1,2-dihydropyridin-4-yl)benzamide]
33 |  | 155 nM |  | CCCOc1ccc(Oc2ccc(F)cc2C(=O)Nc2cc[nH]c(=O)c2)cc1 [Compound 100, 5-fluoro-N-(2-oxo-1,2-dihydropyridin-4-yl)-2-(4-propoxyphenoxy)benzamide]

Row | Structure (SMILES) | RLM (% remaining @ 30 minutes) [1] | IC50 (human Nav1.8) | HLM (% remaining @ 30 minutes) [2]
34 | O=C(Nc1cc[nH]c(=O)c1)c1ccc(C(F)(F)F)cc1OC1CCC1 [Compound 122, 2-cyclobutoxy-N-(2-oxo-1,2-dihydropyridin-4-yl)-4-(trifluoromethyl)benzamide] |  | 4200 nM | 
35 | CC(C)(C)Oc1ccc(Oc2ccc(F)cc2C(=O)Nc2cc[nH]c(=O)c2)cc1 [Compound 97, 2-(4-(tert-butoxy)phenoxy)-5-fluoro-N-(2-oxo-1,2-dihydropyridin-4-yl)benzamide] |  | 745 nM | 
36 | CC(C)COc1ccc(C(F)(F)F)cc1C(=O)Nc1cc[nH]c(=O)c1 [Compound 131, 2-isobutoxy-N-(2-oxo-1,2-dihydropyridin-4-yl)-5-(trifluoromethyl)benzamide] |  | 1500 nM | 
